Values joined by “and” are separate entries in the source; they are usually repeats but may differ in a detail not shown here. Equal values may be shown once. Numbers after ± are expanded uncertainties.
Conditions: Crystal, Calculated from knudsen effusion weight loss

O=S(=O)([O-])[O-].[K+].[K+] [potassium sulfate]
Conditions	vapor or sublimation pressure
1193 K	2.255e-05 ± 4.6e-06 kPa
1201 K	4.069e-05 ± 8.3e-06 kPa
1202 K	3.268e-05 ± 6.6e-06 kPa
1207 K	5.831e-05 ± 1.2e-05 kPa
1212 K	4.467e-05 ± 9.1e-06 kPa
1214 K	4.592e-05 ± 9.3e-06 kPa and 5.841e-05 ± 1.2e-05 kPa
1218 K	4.274e-05 ± 8.7e-06 kPa
1221 K	7.584e-05 ± 1.5e-05 kPa
1223 K	9.497e-05 ± 1.9e-05 kPa
1224 K	6.12e-05 ± 1.2e-05 kPa
1225 K	5.984e-05 ± 1.2e-05 kPa
1226 K	7.236e-05 ± 1.5e-05 kPa
1227 K	0.0001197 ± 2.4e-05 kPa
1228 K	0.0001335 ± 2.7e-05 kPa and 9.75e-05 ± 2e-05 kPa
1233 K	6.173e-05 ± 1.3e-05 kPa
1235 K	6.966e-05 ± 1.4e-05 kPa and 0.0001125 ± 2.3e-05 kPa
1238 K	0.000154 ± 3.1e-05 kPa and 7.448e-05 ± 1.5e-05 kPa
1239 K	0.000181 ± 3.7e-05 kPa and 0.0001288 ± 2.6e-05 kPa
1240 K	9.576e-05 ± 1.9e-05 kPa
1241 K	0.0001668 ± 3.4e-05 kPa
1243 K	0.0002943 ± 6e-05 kPa and 0.0001001 ± 2e-05 kPa
1244 K	0.000186 ± 3.8e-05 kPa [middle of 4 runs]
1245 K	0.0001671 ± 3.4e-05 kPa
1246 K	0.0001915 ± 3.9e-05 kPa and 0.0001729 ± 3.5e-05 kPa
1247 K	0.0002093 ± 4.3e-05 kPa
1248 K	0.0002174 ± 4.4e-05 kPa and 0.0001453 ± 3e-05 kPa
1253 K	0.0001091 ± 2.2e-05 kPa
1254 K	0.0001949 ± 4e-05 kPa
1255 K	0.0002829 ± 5.7e-05 kPa and 0.0001188 ± 2.4e-05 kPa
1258 K	0.000281 ± 5.7e-05 kPa and 0.0003264 ± 6.6e-05 kPa
1259 K	0.0001516 ± 3.1e-05 kPa and 0.0002187 ± 4.4e-05 kPa and 0.0003679 ± 7.5e-05 kPa
1260 K	0.0001623 ± 3.3e-05 kPa and 0.0004471 ± 9.1e-05 kPa
1263 K	0.0002656 ± 5.4e-05 kPa
1264 K	0.0005652 ± 0.00011 kPa and 0.0002789 ± 5.7e-05 kPa
1265 K	0.0003443 ± 7e-05 kPa and 0.0002937 ± 6e-05 kPa
1267 K	0.0005201 ± 0.00011 kPa and 0.0003602 ± 7.3e-05 kPa
1268 K	0.0003503 ± 7.1e-05 kPa [middle of 4 runs]
1269 K	0.0001536 ± 3.1e-05 kPa
1271 K	0.0003904 ± 7.9e-05 kPa
1272 K	0.0005138 ± 0.0001 kPa and 0.0005765 ± 0.00012 kPa and 0.0003016 ± 6.1e-05 kPa
1273 K	0.0001617 ± 3.3e-05 kPa and 0.0001919 ± 3.9e-05 kPa
1275 K	0.0006554 ± 0.00013 kPa
1276 K	0.0003422 ± 7e-05 kPa
1277 K	0.000463 ± 9.4e-05 kPa
1280 K	0.0004126 ± 8.4e-05 kPa
1281 K	0.0005285 ± 0.00011 kPa and 0.0002784 ± 5.7e-05 kPa
1282 K	0.000452 ± 9.2e-05 kPa
1283 K	0.0007481 ± 0.00015 kPa [middle of 5 runs]
1286 K	0.0004333 ± 8.8e-05 kPa
1288 K	0.0005671 ± 0.00012 kPa and 0.0005922 ± 0.00012 kPa and 0.0005203 ± 0.00011 kPa
1290 K	0.0009328 ± 0.00019 kPa and 0.0004622 ± 9.4e-05 kPa
1292 K	0.000853 ± 0.00017 kPa and 0.0003739 ± 7.6e-05 kPa and 0.0005323 ± 0.00011 kPa
1296 K	0.0006593 ± 0.00013 kPa and 0.0005992 ± 0.00012 kPa
1297 K	0.001092 ± 0.00023 kPa
1300 K	0.0007532 ± 0.00015 kPa [middle of 4 runs]
1301 K	0.0007786 ± 0.00016 kPa
1302 K	0.0004586 ± 9.3e-05 kPa and 0.0006547 ± 0.00013 kPa
1303 K	0.0003659 ± 7.4e-05 kPa
1304 K	0.0006238 ± 0.00013 kPa
1305 K	0.0008515 ± 0.00017 kPa [middle of 4 runs]
1306 K	0.001457 ± 0.00031 kPa
1308 K	0.0009057 ± 0.00018 kPa
1309 K	0.0005351 ± 0.00011 kPa and 0.000795 ± 0.00016 kPa
1311 K	0.001559 ± 0.00033 kPa
1313 K	0.001473 ± 0.00032 kPa
1314 K	0.001 ± 0.0002 kPa and 0.0008818 ± 0.00018 kPa
1315 K	0.0006036 ± 0.00012 kPa
1317 K	0.000929 ± 0.00019 kPa
1318 K	0.000916 ± 0.00019 kPa and 0.0006586 ± 0.00013 kPa
1320 K	0.001024 ± 0.00022 kPa
1325 K	0.001188 ± 0.00025 kPa and 0.001093 ± 0.00023 kPa
1326 K	0.0008296 ± 0.00017 kPa
1330 K	0.0008553 ± 0.00017 kPa and 0.001278 ± 0.00027 kPa
1332 K	0.001415 ± 0.0003 kPa
1334 K	0.00134 ± 0.00029 kPa
1335 K	0.001459 ± 0.00031 kPa
1336 K	0.001412 ± 0.0003 kPa
1341 K	0.001475 ± 0.00032 kPa
1343 K	0.001564 ± 0.00034 kPa
1347 K	0.001721 ± 0.00037 kPa
1349 K	0.001744 ± 0.00038 kPa
1352 K	0.001919 ± 0.00041 kPa
1355 K	0.001941 ± 0.00042 kPa
1359 K	0.002022 ± 0.00044 kPa

From the NIST ThermoML archive (doi:10.1016/j.tca.2013.10.024)
